Values after ≈ are worked out from the molar mass of the structure shown. Active and inactive are the calls of the source. The rule behind the calls is not given here.

For data set [1], the system named is Escherichia coli. The data set is described as follows: Bactericidal activity against Escherichia coli producing NDM-1 assessed as reduction in bacterial viability upto 64 ug/ml incubated for 12 hrs by time kill assay. Format: functional. To be noted: dose microg/ml <=64.
Data set [2] in a line: Binding affinity to Zn2+ ion assessed as UV absorption peak at 325 nm at 50 uM incubated for 5 mins in presence of ZnCl2 by spectrometry analysis.
Data set [3] relates to Escherichia coli. Description: Antibacterial activity against Escherichia coli 24 assessed as reduction in bacterial growth incubated for 24 hrs by broth microdilution method. The data set is classed as functional. A general note: Broth dilution looks for growth in wells or tubes with falling amounts of substance.
Data set [4] can be described thus: (§1) Inhibition of bacterial NDM-1 expressed in Escherichia coli BL21 (DE3) using meropenem as substrate incubated for 1 hr by spectrometry analysis. Further details: species or system Bacteria.
Data set [5] relates to Bacteria. The data set is described as §1.
Data set [6] concerns the target Metallo-beta-lactamase (Escherichia coli) (UniProt Q5U7L7). Description: Inhibition of Escherichia coli VIM-2 assessed as potentiation of meropenem-induced antibacterial activity by measuring fold reduction in meropenem MIC up to 8 ug/ml incubated for 24 hrs by broth microdilution method relative to meropenem alone. The conditions noted are these: dose microg/ml <=8, time 24.0 hrs.

Data set [7] relates to Escherichia coli. Description: Inhibition of Escherichia coli L1 assessed as potentiation of meropenem-induced antibacterial activity by measuring fold reduction in meropenem MIC up to 8 ug/ml incubated for 24 hrs by broth microdilution method relative to meropenem alone. To be noted: dose microg/ml <=8, time 24.0 hrs.
The subject of data set [8] is Escherichia coli. Description: Inhibition of Escherichia coli NDM-1 assessed as bacterial growth rate in presence of ZnCl2 and meropenem relative to control. Further details: scale not given: the % may be the effect or the level left.
Data set [9] relates to Escherichia coli. Description: Potentiation of meropenem-induced antibacterial activity against Escherichia coli 01 assessed as fold reduction in meropenem MIC incubated for 24 hrs by broth microdilution method relative to meropenem alone. Format: functional.
Data set [10] in a line: Cytotoxicity against African green monkey Vero E6 cells assessed as cell viability at 50 uM relative to control. The data set is classed as cell-based, Vero C1008. The conditions noted are these: chlorocebus sabaeus, read-out: Activity.
Data set [11] relates to Escherichia coli. The data set is described as follows: Potentiation of meropenem-induced antibacterial activity against Escherichia coli 06 assessed as meropenem MIC incubated for 24 hrs by broth microdilution method. Format: functional.
In data set [12] the test system is Escherichia coli. Description: Antibacterial activity against Escherichia coli producing IMP-1 assessed as fractional inhibitory concentration index incubated for 24 hrs in presence of meropenem by checkerboard assay. The data set is classed as functional, organism-based.
Data set [13] concerns Escherichia coli. The data set is described as follows: Inhibition of Escherichia coli NDM-1 assessed as potentiation of meropenem-induced antibacterial activity by measuring meropenem MIC incubated for 24 hrs by broth microdilution method.
In data set [14] the test system is Escherichia coli. The data set is described as follows: Antibacterial activity against Escherichia coli producing L1 assessed as fractional inhibitory concentration index incubated for 24 hrs in presence of meropenem by checkerboard assay. The data set is classed as functional, organism-based.
The test system of data set [15] is Bacteria. The data set is described as follows: Inhibition of bacterial NDM-1 expressed in Escherichia coli BL21 (DE3) at 20 uM using meropenem as substrate incubated for 1 hr by spectrometry analysis relative to control.
Data set [16] is described as follows: (§2) Inhibition of bacterial L1 using meropenem as substrate incubated for 1 hr by spectrometry analysis. Details: species or system Bacteria.
In data set [17] the test system is Bacteria. The description is as §2.
Data set [18] relates to Bacteria. Description: Reversible inhibition of bacterial NDM-1 assessed as enzyme activity at 50 uM incubated for 6 hrs by ICP-MS analysis.
For data set [19], the system named is Klebsiella pneumoniae. Description: Potentiation of meropenem-induced antibacterial activity against Klebsiella pneumoniae assessed as meropenem MIC incubated for 24 hrs by broth microdilution method. Format: functional.
In data set [20] the test system is Escherichia coli. Description: Inhibition of Escherichia coli IMP-1 assessed as potentiation of meropenem-induced antibacterial activity by measuring fold reduction in meropenem MIC up to 8 ug/ml incubated for 24 hrs by broth microdilution method relative to meropenem alone. The conditions noted are these: dose microg/ml <=8, time 24.0 hrs.
In data set [21] the test system is Escherichia coli. Description: Antibacterial activity against Escherichia coli producing NDM-1 assessed as zone of inhibition in presence of meropenem (reference value: 23.5 millimeter). Format: functional.
The test system of data set [22] is Klebsiella pneumoniae. The data set is described as follows: Antibacterial activity against Klebsiella pneumoniae assessed as fractional inhibitory concentration index incubated for 24 hrs in presence of meropenem by checkerboard assay. The data set is classed as functional.
The test system of data set [23] is Escherichia coli. Description: Antibacterial activity against Escherichia coli 04 assessed as reduction in bacterial growth incubated for 24 hrs by broth microdilution method. The data set is classed as functional.
The subject of data set [24] is Klebsiella pneumoniae. The data set is described as follows: Antibacterial activity against Klebsiella pneumoniae assessed as reduction in bacterial growth incubated for 24 hrs by broth microdilution method. The data set is classed as functional.

Take `CN(C(=S)NN=C(c1ccccn1)c1ccccn1)C1CCCCC1`: in [1], the “inhibition (INH)” value is reported as 99%. Moreover, in data set [2], the outcome was Active. The MIC turned out to be 16 µg/mL (≈ 45.3 µM) in [3]; 64 µg/mL in [11]; 8 µg/mL in data set [13]; 32 µg/mL in data set [19]; 16 µg/mL (≈ 45.3 µM) in [23]; 32 µg/mL (≈ 90.5 µM) in data set [24]. Also, the IC50 (usually the concentration needed to halve the response being measured) in data set [4] was 21 nM; in data set [16], 1080 nM. Moreover, the inhibition (as a rule, the relative decrease from the control value, in per cent) is “Dose-Dependent Effect” in data set [5], > 90% in data set [15] and “Dose-Dependent Effect” in data set [17]. Besides, the fold change (FC) in data set [6] is 32; in data set [7] it was 4; in data set [9] it was 2; in [20], 8. In [8], the Activity was 65%. The viability at 50 µM in [10] is > 70%. For the same compound, the outcome in [12] and in [14] was inactive. For the same compound, the inhibition entry in data set [18] was “Active”. In addition, the “inhibition zone (IZ)” value in [21] was found to be 30.1 mm. In addition, the FIC in data set [22] was 0.313.
